This is an account of results in ChEMBL document CHEMBL1154288, “The discovery and unique pharmacological profile of RO4938581 and RO4882224 as potent and selective GABAA alpha5 inverse agonists for the treatment of cognitive dysfunction” (Bioorg Med Chem Lett, 2009).

Data set [1] addresses T1, GABA-A receptor; alpha-5/beta-3/gamma-2 (Homo sapiens, UniProt P18507+P28472+P31644).
T1 sequence (P18507 whole entry): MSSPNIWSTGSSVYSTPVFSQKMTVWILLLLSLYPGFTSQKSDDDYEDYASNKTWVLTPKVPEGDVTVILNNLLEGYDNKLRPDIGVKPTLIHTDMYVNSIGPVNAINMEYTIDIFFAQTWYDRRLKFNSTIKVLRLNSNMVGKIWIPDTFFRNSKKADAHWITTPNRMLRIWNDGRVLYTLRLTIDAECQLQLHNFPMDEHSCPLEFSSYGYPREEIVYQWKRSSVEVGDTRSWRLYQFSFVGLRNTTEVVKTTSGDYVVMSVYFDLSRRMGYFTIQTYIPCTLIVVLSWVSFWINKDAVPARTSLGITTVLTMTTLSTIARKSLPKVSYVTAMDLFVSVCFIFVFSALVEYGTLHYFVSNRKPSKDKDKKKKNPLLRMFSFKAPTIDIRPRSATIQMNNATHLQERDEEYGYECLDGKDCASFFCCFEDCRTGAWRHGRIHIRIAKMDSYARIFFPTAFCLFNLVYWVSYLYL
T1 sequence (P28472 whole entry): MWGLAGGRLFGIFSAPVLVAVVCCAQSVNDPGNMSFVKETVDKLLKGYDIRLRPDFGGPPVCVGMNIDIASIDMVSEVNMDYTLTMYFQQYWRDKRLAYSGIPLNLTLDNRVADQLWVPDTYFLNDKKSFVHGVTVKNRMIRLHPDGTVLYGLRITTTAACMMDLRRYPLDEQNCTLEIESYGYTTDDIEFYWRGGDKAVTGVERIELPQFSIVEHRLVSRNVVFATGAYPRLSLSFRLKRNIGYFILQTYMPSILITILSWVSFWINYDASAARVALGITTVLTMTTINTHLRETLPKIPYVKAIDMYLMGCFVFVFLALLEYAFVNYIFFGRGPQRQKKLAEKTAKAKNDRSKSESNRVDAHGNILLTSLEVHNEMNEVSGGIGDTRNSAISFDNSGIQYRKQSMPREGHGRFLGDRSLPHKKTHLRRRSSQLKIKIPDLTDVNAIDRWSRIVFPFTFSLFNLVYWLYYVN
T1 sequence (P31644 whole entry): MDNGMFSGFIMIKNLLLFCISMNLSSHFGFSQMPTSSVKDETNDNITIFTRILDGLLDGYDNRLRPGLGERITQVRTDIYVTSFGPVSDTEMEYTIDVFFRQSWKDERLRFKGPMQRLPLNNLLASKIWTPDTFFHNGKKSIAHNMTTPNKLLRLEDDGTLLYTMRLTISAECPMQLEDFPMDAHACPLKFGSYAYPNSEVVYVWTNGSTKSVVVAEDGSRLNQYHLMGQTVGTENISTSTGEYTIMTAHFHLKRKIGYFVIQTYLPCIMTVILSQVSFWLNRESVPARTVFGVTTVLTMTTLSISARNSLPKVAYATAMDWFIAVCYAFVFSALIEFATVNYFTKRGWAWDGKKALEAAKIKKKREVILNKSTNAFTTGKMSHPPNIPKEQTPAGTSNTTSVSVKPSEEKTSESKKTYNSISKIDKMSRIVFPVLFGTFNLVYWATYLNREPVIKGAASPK
Nature of the data set: Displacement of [3H]Flumazenil from cloned human GABA alpha-5-beta-3-gamma-2 receptor expressed in HEK293 cells. It is filed as cell-based.

Data set [2] has as its system HEK293. Nature of the data set: Selectivity ratio of Ki for cloned human GABA alpha-2-beta-3-gamma-2 receptor expressed in HEK293 cells to Ki for cloned human GABA alpha-5-beta-3-gamma-2 receptor expressed in HEK293 cells. It is filed as cell-based.
The test system of data set [3] is HEK293. The data set can be described thus: Selectivity ratio of Ki for cloned human GABA alpha-3-beta-3-gamma-2 receptor expressed in HEK293 cells to Ki for cloned human GABA alpha-5-beta-3-gamma-2 receptor expressed in HEK293 cells. It is filed as cell-based.
The target in data set [4] is GABA A receptor alpha-5/beta-3/gamma-2 (Rattus norvegicus) (UniProt P18508+P19969+P63079). The data set can be described thus: Inverse agonist activity at rat GABA alpha-5-beta-3-gamma-2 receptor expressed in HEK293 cells by electrophysiology assay relative to GABA. Type of data set: functional, cell-based.
Data set [5] deals with T2, GABA-A receptor; alpha-2/beta-3/gamma-2 (Homo sapiens, UniProt P18507+P28472+P47869).
T2 sequence (P18507 whole entry): T1 sequence (P18507 whole entry)
T2 sequence (P28472 whole entry): T1 sequence (P28472 whole entry)
T2 sequence (P47869 whole entry): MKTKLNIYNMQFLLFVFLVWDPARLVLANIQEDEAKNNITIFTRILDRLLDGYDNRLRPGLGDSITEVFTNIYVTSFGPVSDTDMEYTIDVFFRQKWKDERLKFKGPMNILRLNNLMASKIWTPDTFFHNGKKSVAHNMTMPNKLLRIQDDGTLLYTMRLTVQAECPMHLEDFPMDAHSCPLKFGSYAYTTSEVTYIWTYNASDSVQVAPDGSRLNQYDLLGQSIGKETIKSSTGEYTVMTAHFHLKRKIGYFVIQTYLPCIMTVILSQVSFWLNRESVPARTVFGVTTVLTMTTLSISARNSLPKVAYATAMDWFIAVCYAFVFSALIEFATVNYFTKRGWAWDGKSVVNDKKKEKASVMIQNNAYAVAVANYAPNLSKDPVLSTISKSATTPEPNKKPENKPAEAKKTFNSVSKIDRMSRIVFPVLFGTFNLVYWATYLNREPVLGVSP
The data set can be described thus: Displacement of [3H]Flumazenil from cloned human GABA alpha-2-beta-3-gamma-2 receptor expressed in HEK293 cells. Type of data set: cell-based.

Data set [6] addresses T3, GABA-A receptor; alpha-3/beta-3/gamma-2 (Homo sapiens, UniProt P18507+P28472+P34903).
T3 sequence (P18507 whole entry): T1 sequence (P18507 whole entry)
T3 sequence (P28472 whole entry): T1 sequence (P28472 whole entry)
T3 sequence (P34903 whole entry): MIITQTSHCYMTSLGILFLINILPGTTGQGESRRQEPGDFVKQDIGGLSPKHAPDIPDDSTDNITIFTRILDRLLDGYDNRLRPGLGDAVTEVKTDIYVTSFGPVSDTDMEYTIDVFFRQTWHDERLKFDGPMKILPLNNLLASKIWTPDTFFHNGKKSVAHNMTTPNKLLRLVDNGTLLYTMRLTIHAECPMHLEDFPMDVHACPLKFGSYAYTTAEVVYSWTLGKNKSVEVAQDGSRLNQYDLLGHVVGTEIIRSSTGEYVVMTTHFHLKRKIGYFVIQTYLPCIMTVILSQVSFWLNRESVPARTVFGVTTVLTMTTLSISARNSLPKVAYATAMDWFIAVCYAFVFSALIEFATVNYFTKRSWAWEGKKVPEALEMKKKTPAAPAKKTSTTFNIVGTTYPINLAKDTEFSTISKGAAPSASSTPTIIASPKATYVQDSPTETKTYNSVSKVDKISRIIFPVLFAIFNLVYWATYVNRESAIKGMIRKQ
The data set can be described thus: Displacement of [3H]Flumazenil from cloned human GABA alpha-3-beta-3-gamma-2 receptor expressed in HEK293 cells. It is filed as cell-based.

The target in data set [7] is GABA A receptor alpha-2/beta-2/gamma-2 (Rattus norvegicus) (UniProt P18508+P23576+P63138). Nature of the data set: Inverse agonist activity at rat GABA alpha-2-beta-3-gamma-2 receptor expressed in HEK293 cells by electrophysiology assay relative to GABA. It is filed as functional, cell-based.
The nature of data set [8]: Permeability by PAMPA. It is filed as ADME. To be noted: read-out: permeability.
The nature of data set [9]: Volume of distribution at steady state in rat. Type of data set: ADME, organism-based. To be noted: in vivo, read-out: Vdss.
A short description of data set [10]: Oral bioavailability in rat. Type of data set: ADME, organism-based. To be noted: in vivo.

On to `Cc1ncn2c1Cn1ncnc1-c1cc(Cl)ccc1-2`, for which the Ki was determined as 3 nM in [1], 219 nM in data set [5] and 265 nM in [6]. For the same molecule, the results for the Ratio Ki in the data set with HEK293 [2] and in the data set on HEK293 [3] were 72 and 88, respectively. In addition, the Efficacy was -41% in [4] and -2% in [7]. Moreover, the Papp in data set [8] came out at 8.9 ×10⁻⁶ cm/s. Also, the Vd in [9] was 1.9 L/kg. In addition, the bioavailability in data set [10] stood at 52%.

For `Clc1ncn2c1Cn1ncnc1-c1cc(Br)ccc1-2`, the inhibition constant (Ki) in data set [1] is 1.4 nM; in data set [5], 24 nM; in data set [6] it was 8.8 nM. The Ratio Ki is 18 in the data set on HEK293 [2] and 7 with HEK293 [3]. Also, the Efficacy in data set [4] is -48%; in data set [7], -25%. For the same molecule, the Papp in data set [8] worked out at 7 ×10⁻⁶ cm/s. For the same molecule, the Vd in [9] was 1.3 L/kg. The bioavailability in data set [10] was determined as 56%.

For `FC(F)c1ncn2c1Cn1ncnc1-c1cc(Br)ccc1-2`, the Ki in [1] stood at 4.6 nM; in data set [5] it was 185 nM; in [6], 80 nM. Moreover, the results for the Efficacy in data set [4] and in data set [7] were -35% and -4%, respectively. Moreover, the Papp in [8] amounted to 7 ×10⁻⁶ cm/s. Further, the Vd in [9] came to 1.2 L/kg. In addition, the bioavailability in [10] is 89%.

Turning to `Clc1ccc2c(c1)-c1ncnn1Cc1c(Cl)ncn1-2`, the Ki came to 2 nM in data set [1], 24 nM in data set [5] and 14 nM in data set [6]. Further, the Ratio Ki in the data set on HEK293 [2] stood at 12; in the data set with HEK293 [3], 7. The Efficacy was -40 in data set [4] and -9% in data set [7]. Further, the Papp in data set [8] amounted to 6.5 ×10⁻⁶ cm/s. Further, the Vd in data set [9] came out at 0.5 L/kg. Further, the bioavailability in [10] was 81%.
